From US20240279205A1, “NOVEL BENZIMIDAZOLE DERIVATIVE” (Carna Biosciences, Inc., priority 2020, published 2024)
Structures can show the parent of a compound that is named as a salt.

The molecules below were run against T1, human STING (hSTING) (Homo sapiens, UniProt Q86WV6) (assay: Inhibition test of intracellular human STING (hSTING) pathway using SEAP reporter cells (HEK-Blue ISG), stimulation with Compound 3). Conditions: Compound 3 10 nM stimulation, 21 hours.
T1 construct: host or cells: HEK-Blue ISG cells (HEK293-derived SEAP reporter line)
T1 sequence (Q86WV6 whole entry H232R): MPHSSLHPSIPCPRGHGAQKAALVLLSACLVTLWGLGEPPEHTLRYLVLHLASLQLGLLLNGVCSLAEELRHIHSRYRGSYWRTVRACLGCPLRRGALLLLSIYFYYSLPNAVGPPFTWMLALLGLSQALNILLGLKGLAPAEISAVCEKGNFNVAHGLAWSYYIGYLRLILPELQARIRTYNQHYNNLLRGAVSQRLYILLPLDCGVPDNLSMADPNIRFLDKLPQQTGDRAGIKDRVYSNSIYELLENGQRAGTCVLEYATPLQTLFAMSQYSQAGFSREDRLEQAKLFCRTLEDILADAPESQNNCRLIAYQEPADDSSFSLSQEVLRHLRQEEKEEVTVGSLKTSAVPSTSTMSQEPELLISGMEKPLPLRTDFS
Assay type: cell-based
Set-up: hSTING inhibitory activity: scale not given here
Method: Inhibition test of intracellular human STING (hSTING) pathway using reporter cells
Since STING activates the transcription factor IRF3 upon ligand stimulation, the activity of STING can be evaluated by a reporter assay using a secretory alkaline phosphatase (SEAP reporter) integrated downstream of an IRF-inducible promoter.
That is, the hSTING inhibitory activity of the test compound was evaluated using HEK-Blue™MISG cells (manufactured by Invivogen, #hkb-isg-1) incorporating a SEAP reporter. Activation of hSTING was performed by stimulation with the small molecule ligand Compound 3 as described in the literature (Ramanjulu, J. M., et al., Nature. 2018, 564 (7736), 439-443). HEK-Blue™MISG cells were seeded in a 96-well plate and cultured overnight at 37° C. in a 5% CO2 incubator. To each well of this cell culture plate, a test compound solution adjusted to a final concentration of 0.1 to 10 µM of the test compound was added, cultured for 1 hour in a CO2 incubator, and then Compound 3 (final concentration 10 nM) was added and further cultured in a CO2 incubator for 21 hours. After collecting the culture supernatant of each well, the reporter activity was measured by color development reaction with alkaline phosphatase.
The reporter activity of the test compound non-addition and Compound 3 addition group was set to 100%, and the reporter activity of the test compound non-addition and Compound 3 non-addition group was set to 0%. The IC50 value was determined by regression analysis of the inhibitory rate determined from the reporter activity at each compound concentration and the test compound concentration (logarithm).
For `C1=C(c2ccnc3c(Nc4nc5cc(Oc6ccccc6)ccc5[nH]4)c[nH]c23)CCCC1` [Embodiment 162, N-[7-(Cyclohex-1-en-1-yl)-1H-pyrrolo[3,2-b]pyridin-3-yl]-5-phenoxy-1H-benzo[d]imidazole-2-amine], the hSTING inhibitory activity was “* *”.

Same assay, conditions: Compound 3 10 nM stimulation, 21 hours, read-out: hSTING inhibitory activity
`Cn1c(Nc2c[nH]c3ccc(Cl)nc23)nc2ccc(C3CCOCC3)cc21` [Embodiment 154, N-(5-chloro-1H-pyrrolo[3,2-b]pyridin-3-yl)-1-methyl-6-(tetrahydro-2H-pyran-4-yl)-1H-benzo[d] imidazol-2-amine] gave an IC50 of at least 10 µM.
In the case of `Cn1c(Nc2c[nH]c3ccc(Cl)nc23)nc2c(F)cccc21` [Embodiment 155, N-(5-Chloro-1H-pyrrolo[3,2-b]pyridin-3-yl)-4-fluoro-1-methyl-1H-benzo[d]imidazol-2-amine], the IC50 is reported as at least 10 µM.
Molecule `Cc1ccc2c(c1)nc(Nc1c[nH]c3ccc(Cl)nc13)n2C` [Embodiment 156, N-(5-Chloro-1H-pyrrolo[3,2-b]pyridin-3-yl)-1,5-dimethyl-1H-benzo [d]imidazol-2-amine] has an IC50 of at least 10 µM.
`COc1ccc2nc(Nc3c[nH]c4ccc(Cl)nc34)n(C)c2c1` [Embodiment 161, N-(5-Chloro-1H-pyrrolo[3,2-b]pyridin-3-yl)-6-methoxy-1-methyl-1H-benzo[d]imidazol-2-amine] was tested, and the IC50 was at least 10 µM.
Work on `c1ccc(Oc2ccc3[nH]c(Nc4c[nH]c5c(-c6ccncc6)ccnc45)nc3c2)cc1` [Embodiment 163, 5-phenoxy-N-[7-(pyridin-4-yl)-1H-pyrrolo[3,2-b]pyridin-3-yl]-1H-benzo[d]imidazol-2-amine] yielded an IC50 of at least 10 µM.
In the case of `c1ccc(Oc2ccc3[nH]c(Nc4c[nH]c5c(-c6cccnc6)ccnc45)nc3c2)cc1` [Embodiment 164, 5-phenoxy-N-[7-(pyridin-3-yl)-1H-pyrrolo[3,2-b]pyridin-3-yl]-1H-benzo[d]imidazol-2-amine], the IC50 is reported as 1 to 10 µM.
For `Cn1ccc(-c2ccnc3c(Nc4nc5cc(Oc6ccccc6)ccc5[nH]4)c[nH]c23)n1` [Embodiment 165, N-[7-(1-methyl-1H-pyrazol-3-yl)-1H-pyrrolo[3,2-b]pyridin-3-yl]-5-phenoxy-1H-benzo[d]imidazole-2-amine], the IC50 was 1 to 10 µM.
In the case of `CN(C)C(=O)c1cccc2[nH]c(Nc3c[nH]c4ccc(Cl)nc34)nc12` [Embodiment 166, 2-[(5-Chloro-1H-pyrrolo[3,2-b]pyridin-3-yl)amino]-N,N-dimethyl-1H-benzo[d]imidazole-4-carboxamide], the IC50 is reported as at least 10 µM.
Work on `COCCn1c(Nc2c[nH]c3ccc(Cl)nc23)nc2c(C(F)(F)F)cccc21` [Embodiment 167, N-(5-Chloro-1H-pyrrolo[3,2-b]pyridin-3-yl)-1-(2-methoxyethyl)-4-(trifluoromethyl)-1H-benzo[d] imidazole-2-amine] yielded an IC50 of at least 10 µM.
`Cn1c(Nc2c[nH]c3ccc(Cl)nc23)nc2cc(F)ccc21` [Embodiment 168, N-(5-Chloro-1H-pyrrolo[3,2-b]pyridin-3-yl)-5-fluoro-1-methyl-1H-benzo[d]imidazol-2-amine formate] gave an IC50 of at least 10 µM.
Work on `C=Cc1ccc2[nH]cc(Nc3nc4cc(C(F)(F)F)ccc4n3C)c2n1` [Embodiment 171, 1-methyl-5-(trifluoromethyl)-N-(5-vinyl-1H-pyrrolo[3,2-b]pyridin-3-yl)-1H-benzo[d]imidazol-2-amine] yielded an IC50 of 1 to 10 µM.
With `Cn1c(Nc2c[nH]c3ccc(Cl)nc23)nc2cc(Cl)ccc21` [Embodiment 172, 5-Chloro-N-(5-chloro-1H-pyrrolo [3,2-b]pyridin-3-yl)-1-methyl-1H-benzo[d]imidazol-2-amine] the IC50 was 1 to 10 µM.
With `CCc1ccc2[nH]cc(Nc3nc4cc(C(F)(F)F)ccc4n3C)c2n1` [Embodiment 173, N-(5-ethyl-1H-pyrrolo[3,2-b]pyridin-3-yl)-1-methyl-5-(trifluoromethyl)-1H-benzo[d]imidazol-2-amine] the IC50 was at least 10 µM.
In the case of `Cn1c(Nc2c[nH]c3ccc(Cl)nc23)nc2ccc(Oc3ccc(C#N)cc3)cc21` [Embodiment 174, 4-({2-[(5-chloro-1H-pyrrolo[3,2-b]pyridin-3-yl)amino]-1-methyl-1H-benzo[d]imidazol-6-yl} Oxy)benzonitrile], the IC50 is reported as at least 10 µM.
